Laboratory results from PMC5424463, “A strategy based on nucleotide specificity leads to a subfamily-selective and cell-active inhibitor of N ^6-methyladenosine demethylase FTO” (Chemical Science, 2014).
pIC50: −log10 of the molar value. Values joined by “and” are separate entries in the source; they are usually repeats but may differ in a detail not shown here. Equal entries are not always repeated.

Legend:
[1] = molecular target: T1, AlkB (Escherichia coli, UniProt P05050); test: Differential scanning fluorimetry (DSF)-based binding assay, AlkB; conditions: 100 μM compound, 2 μM protein, 50 μM MnCl2, read-out: Tm shift (AlkB)
T1 construct: made in house; host or cells: E. coli BL21 (DE3) Rosetta T1R
Description: (§1) Superdex-200 column (GE Healthcare) pre-equilibrated with 20 mM HEPES, pH 7.5, 300 mM NaCl, 10% (v/v) glycerol, 0.5 mM TCEP. […]
(§2) Differential scanning fluorimetry (DSF)-based binding assay
(§3) DSF-based binding assay was performed using a MiniOpticon™ Real-Time PCR Detection System (Bio-Rad), monitoring protein unfolding using SYPRO orange (Invitrogen) according to the reported method.[16] FAM (492 nm) and ROX (610 nm) filters were used for excitation and emission respectively. Reaction mixes contained 2 μM protein, 50 μM MnCl2, 100 μM compounds, 5x SYPRO orange in a final volume of 50 μl. Reagents were prepared in 50mM HEPES buffer, pH 7.5 except metals, which were dissolved as 100 mM stocks in 20 mM HCl, then further diluted in MilliQ water. Compounds tested were prepared in 100% DMSO and added such that the final concentration of DMSO was not more than 1% v/v of assay […]
(§4) mix. Fluorescence readings were taken every 1°C in the range 25-95°C, with the temperature increased linearly by 1°C min -1. The software provided was used to perform global minimum subtraction. The inflection point, representing Tm, was calculated by fitting the Boltzmann equation to the sigmoidal curves obtained; data were processed using GraphPad Prism 6.0™.
(§5) The Tm shift caused by the addition of small molecules/ fragments was determined by subtraction of the “reference” Tm (protein incubated with metal and 1% v/v DMSO) from the Tm obtained in the presence of the compound. The assay was performed in triplicate for each inhibitor, with standard deviations typically < 1°C. […]

[2] = molecular target: T1, AlkB; test: HPLC-based inhibition assay for AlkB, m1A-ssDNA substrate; format: biochemical
Description: (§6) HPLC-based inhibition assays for AlkB and ALKBH2
(§7) The assay was modified from previously reported method.[18] A 15-mer m1A-ssDNA substrate with the sequence 5’-AAAGCAG(m1A)ATTCGAA-3 ’ (Yale University, W.M.
(§8) Keck Foundation Biotechnology Resource Laboratory) was used in this inhibition assay. The assay was performed in triplicate for each inhibitor, in a final reaction volume of 25 µL.
(§9) Reaction consisted of AlkB (1 µM) or ALKBH2 (2 µM), 2OG (50 µM), (NH4)2Fe(SO4)2·6H2O (50 µM), L-ascorbate (2 mM), m1A-ssDNA substrate (10 µM), in 50 mM HEPES buffer, pH 7.5, and inhibitor at various concentrations (final DMSO concentration not more than 1% v/v of assay mix). The reaction was incubated at 4°C for 10 min, before analysis on a bio-inert HPLC system. The m1A-ssDNA substrate and the corresponding demethylated product were separated using a Dionex DNAPac PA200 anion-exchange column (8 µm, […]) with a gradient of 98% solvent A (50 mM sodium citrate buffer, pH 5.5) to 65% solvent B (50 mM sodium citrate buffer, pH 5.5 with 1.25 M sodium chloride) over 18 min, at a flow rate of 1 mL/min at 40°C. The UV detection wavelength was set at 266 nm. The percentage inhibition was estimated based on the peak areas of the m1A-ssDNA substrate and the corresponding demethylated product. For IC50 determination, eight different concentrations of inhibitors were used (0, 1, 3, 10, 30, 100, 300, […]
(§10) different inhibitor concentrations, using nonlinear regression, with normalized dose-response fit on GraphPad Prism 6.0™. […]

[3] = molecular target: T2, ALKBH2 (Homo sapiens, UniProt Q6NS38); test: HPLC-based inhibition assay for ALKBH2, m1A-ssDNA substrate; format: biochemical
T2 construct: made in house; host or cells: E. coli BL21 (DE3)
T2 sequence (Q6NS38 56-258): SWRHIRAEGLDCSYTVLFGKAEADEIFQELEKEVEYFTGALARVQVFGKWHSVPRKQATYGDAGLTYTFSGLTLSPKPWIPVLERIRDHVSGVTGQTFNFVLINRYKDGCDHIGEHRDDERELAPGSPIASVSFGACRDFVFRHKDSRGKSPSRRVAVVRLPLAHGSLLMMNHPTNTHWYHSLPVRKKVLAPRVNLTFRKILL
Description: as §6, §7, §8, §9, §10

[4] = molecular target: T2, ALKBH2; test: Differential scanning fluorimetry (DSF)-based binding assay, ALKBH2; conditions: DSF, 100 μM compound, 2 μM protein, 50 μM MnCl2; read-out: Tm shift (ALKBH2)
Description: as §1, §2, §3, §4, §5

[5] = molecular target: T3, ALKBH5 (Homo sapiens, UniProt Q6P6C2); test: Differential scanning fluorimetry (DSF)-based binding assay, ALKBH5; conditions: 100 μM compound, 2 μM protein, 50 μM MnCl2, read-out: Tm shift (ALKBH5)
T3 construct: pNIC28-Bsa4 ALKBH5 (encompassing residues 66-292); made in house; host or cells: E. coli BL21 (DE3) Rosetta T1R
Description: as §1, §2
DSF-based binding assay was performed using a MiniOpticon™ Real-Time PCR Detection System (Bio-Rad), monitoring protein unfolding using SYPRO orange (Invitrogen) according […]
to the reported method.[16] […]
and emission respectively. Reaction mixes contained 2 μM protein, 50 μM MnCl2, 100 μM […]
Reagents were prepared in 50mM
HEPES buffer, pH 7.5 except metals, which were dissolved as 100 mM stocks in 20 mM HCl, then further diluted in MilliQ water. Compounds tested were prepared in 100% DMSO and added such that the final concentration of DMSO was not more than 1% v/v of assay […]
increased linearly by 1°C min -1. The software provided was used to perform global minimum subtraction. The inflection point, representing Tm, was calculated by fitting the Boltzmann equation to the sigmoidal curves obtained; data were processed using GraphPad Prism 6.0™.
The Tm shift caused by the addition of small molecules/ fragments was determined by subtraction of the “reference” Tm (protein incubated with metal and 1% v/v DMSO) from the Tm obtained in the presence of the compound. […]

T1 sequence (P05050 12-216): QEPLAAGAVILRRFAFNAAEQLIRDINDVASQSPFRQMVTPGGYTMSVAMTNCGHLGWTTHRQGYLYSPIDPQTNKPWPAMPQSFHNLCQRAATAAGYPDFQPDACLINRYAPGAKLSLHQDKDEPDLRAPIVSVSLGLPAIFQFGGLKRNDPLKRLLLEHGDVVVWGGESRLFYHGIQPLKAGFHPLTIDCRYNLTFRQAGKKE
T3 sequence (Q6P6C2 66-292): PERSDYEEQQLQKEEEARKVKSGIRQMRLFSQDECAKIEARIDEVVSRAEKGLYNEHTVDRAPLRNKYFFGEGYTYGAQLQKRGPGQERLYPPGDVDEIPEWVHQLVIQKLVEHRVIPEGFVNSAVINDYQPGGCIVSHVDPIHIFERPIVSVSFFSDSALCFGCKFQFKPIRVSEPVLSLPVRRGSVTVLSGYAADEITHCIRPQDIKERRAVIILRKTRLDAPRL

Structure (SMILES) | ΔTm at 100 µM [1] [°C] | pIC50 [2] | pIC50 [3] | ΔTm at 100 µM [4] [°C] | ΔTm at 100 µM [5] [°C]
O=C(O)C=CC(=O)NNC(=O)c1cc(Cc2ccccc2)ccn1 [Compound 22] | 3.2 | 4.17 | 4.40 | 3.7 | 2.8
O=C(O)/C=C/C(=O)NNC(=O)c1ccccn1 [Compound 23] | 1.5 | 3.74 | 3.90 | 2.3 | 2.1
O=C(O)/C=C/C(=O)NNC(=O)c1cnccc1Cc1ccccc1 [Compound 12] | 4.5 | 4.47 | 4.59 | 4.9 | 2.7
O=C(O)/C=C/C(=O)NNC(=O)c1cccnc1 [Compound 21] | 1.8 | 3.77 | 3.82 and < 4.00 | 2 | 2.1
